Reference: patent US6737383B1, “Herbicidal oxadiazolidines” (priority 1999, dated 2004)

Assays:
bedstraw = test: Test B pre/postemergence bedstraw; format: in vivo, Galium aparine
Method in brief: (§1)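 Response is a visual 0-to-10 score relative to untreated plants, where 0 means no effect and 10 means complete control, taken twelve to sixteen days after application. Treatments went onto soil at planting and onto foliage of 1- to 4-leaf plants, using a surfactant-containing non-phytotoxic solvent.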

blackgrass = test: Test B pre/postemergence blackgrass; format: in vivo, Alopecurus myosuroides
Method in brief: as §1

surinam grass = test: Test B pre/postemergence surinam grass; format: in vivo, Brachiaria decumbens
Method in brief: as §1

cocklebur = test: Test B pre/postemergence cocklebur; format: in vivo, Xanthium strumarium
Method in brief: as §1

giant foxtail = test: Test B pre/postemergence giant foxtail; format: in vivo, Setaria faberii
Method in brief: as §1

morningglory = test: Test B pre/postemergence morningglory; format: in vivo, Ipomoea hederacea
Method in brief: as §1

pigweed = test: Test B pre/postemergence pigweed; format: in vivo, Amaranthus retroflexus
Method in brief: as §1

rape = test: Test B pre/postemergence rape; format: in vivo, Brassica napus
Method in brief: as §1

soybean = test: Test B pre/postemergence soybean; format: in vivo, Glycine max
Method in brief: as §1

sugar beet = test: Test B pre/postemergence sugar beet; format: in vivo, Beta vulgaris
Method in brief: as §1

wheat = test: Test B pre/postemergence wheat; format: in vivo, Triticum aestivum
Method in brief: as §1

wild oat = test: Test B pre/postemergence wild oat; format: in vivo, Avena fatua
Method in brief: as §1

purple nutsedge = test: Test B pre/postemergence purple nutsedge; format: in vivo, Cyperus rotundus
Method in brief: as §1

smallflower flatsedge = test: Test B flood test smallflower flatsedge; format: in vivo, Cyperus difformis
Method in brief: (§2)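 Flood test on plants grown to the 2-leaf stage; treated plants kept in greenhouse twelve to sixteen days, then visually rated against controls on a 0 (no effect) to 10 (complete control) scale.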

duck salad = test: Test B flood test duck salad; format: in vivo, Heteranthera limosa
Method in brief: as §2

bamyardgrass = test: Test B flood test barnyardgrass; format: in vivo, Echinochloa crus-galli
Method in brief: as §2

[1] = Postemergence, Rate 250 g/ha, scale 0 to 10
[2] = Preemergence, Rate 250 g/ha, scale 0 to 10, 0 is no effect, 10 is complete control
[3] = Rate 62 g/ha, Postemergence, scale 0 to 10 (0 no effect, 10 complete control)
[4] = Rate 125 g/ha, Postemergence, scale 0 to 10, 0 is no effect, 10 is complete control
[5] = Postemergence, Rate 500 g/ha, scale of 0 to 10 where 0 is no effect and 10 is complete control
[6] = Preemergence, Rate 62 g/ha, scale of 0 to 10 where 0 is no effect and 10 is complete control
[7] = Preemergence, Rate 125 g/ha, scale of 0 to 10 where 0 is no effect and 10 is complete control
[8] = Preemergence, Rate 500 g/ha, scale 0 to 10, 0 is no effect, 10 is complete control
[9] = Rate 62 g/ha, flood test species, Pre-emergence, visual evaluation after twelve to sixteen days
[10] = Rate 125 g/ha, under heading Pre-emergence, flood test species, visual evaluation after twelve to sixteen days
[11] = Rate 250 g/ha, Pre-emergence (flood test species), scale 0 to 10, 0 is no effect, 10 is complete control
[12] = Rate 500 g/ha, Pre-emergence, flood test species, scale 0 to 10 (0 no effect, 10 complete control)

CC(C)N(C(=O)n1oc(=O)n(C(C)Cl)c1=O)c1ccccc1 (stereo not drawn) [Compound 438]
1: Soybean plant response rating (soybean; [3]) | Soybean plant response rating (soybean; [4]) | Wild oats plant response rating (wild oat; [2])
0: Bedstraw plant response rating (bedstraw; [1]) | Bedstraw plant response rating (bedstraw; [2]) | Bedstraw plant response rating (bedstraw; [3]) | Bedstraw plant response rating (bedstraw; [4]) | Plant response rating, Blackgrass (blackgrass; [6]) | Plant response rating, Blackgrass (blackgrass; [7]) | Blackgrass plant response rating (blackgrass; [3]) | Blackgrass plant response rating (blackgrass; [4]) | B. signalgrass plant response rating (surinam grass; Postemergence, Rate 250 g/ha, scale 0 to 10, 0 no effect, 10 complete control) | B. signalgrass plant response rating (surinam grass; [5]) | Plant response rating, B. signalgrass (surinam grass; [6]) | Plant response rating, B. signalgrass (surinam grass; [7]) | B. signalgrass plant response rating (surinam grass; [2]) | B. signalgrass plant response rating (surinam grass; [3]) | B. signalgrass plant response rating (surinam grass; [4]) | Plant response rating, Cocklebur (cocklebur; [6]) | Plant response rating, Cocklebur (cocklebur; [7]) | Cocklebur plant response rating (cocklebur; [2]) | Cocklebur plant response rating (cocklebur; [8]) | Cocklebur plant response rating (cocklebur; [3]) | Cocklebur plant response rating (cocklebur; [4]) | Plant response rating, Morningglory (morningglory; [6]) | Plant response rating, Morningglory (morningglory; [7]) | Morningglory plant response rating (morningglory; [2]) | Redroot pigweed plant response rating (pigweed; [1]) | Redroot pigweed plant response rating (pigweed; [5]) | Redroot pigweed plant response rating (pigweed; [3]) | Redroot pigweed plant response rating (pigweed; [4]) | Rape plant response rating (rape; [1]) | Rape plant response rating (rape; [5]) | Plant response rating, Rape (rape; [6]) | Plant response rating, Rape (rape; [7]) | Rape plant response rating (rape; [2]) | Rape plant response rating (rape; [3]) | Rape plant response rating (rape; [4]) | Plant response rating, Soybean (soybean; [6]) | Plant response rating, Soybean (soybean; [7]) | Soybean plant response rating (soybean; [2]) | Sugarbeets plant response rating (sugar beet; [1]) | Sugarbeets plant response rating (sugar beet; [5]) | Plant response rating, Sugarbeets (sugar beet; [6]) | Plant response rating, Sugarbeets (sugar beet; [7]) | Sugarbeets plant response rating (sugar beet; [2]) | Sugarbeets plant response rating (sugar beet; [8]) | Sugarbeets plant response rating (sugar beet; [3]) | Sugarbeets plant response rating (sugar beet; [4]) | Wheat plant response rating (wheat; [1]) | Wheat plant response rating (wheat; [5]) | Plant response rating, Wheat (wheat; [6]) | Plant response rating, Wheat (wheat; [7]) | Wheat plant response rating (wheat; [2]) | Wheat plant response rating (wheat; [8]) | Wheat plant response rating (wheat; [3]) | Wheat plant response rating (wheat; [4]) | Wild oats plant response rating (wild oat; [1]) | Wild oats plant response rating (wild oat; [5]) | Plant response rating, Wild oats (wild oat; [6]) | Plant response rating, Wild oats (wild oat; [7]) | Wild oats plant response rating (wild oat; [3]) | Wild oats plant response rating (wild oat; [4]) | Nutsedge plant response rating (purple nutsedge; [1]) | Nutsedge plant response rating (purple nutsedge; [5]) | Plant response rating, Nutsedge (purple nutsedge; [6]) | Plant response rating, Nutsedge (purple nutsedge; [7]) | Nutsedge plant response rating (purple nutsedge; [2]) | Nutsedge plant response rating (purple nutsedge; [3]) | Nutsedge plant response rating (purple nutsedge; [4]) | Plant response rating, S. Flatsedge (0 to 10 scale, 0 is no effect, 10 is complete control) (smallflower flatsedge; [9]) | S. Flatsedge plant response rating (0 to 10 scale, 0 is no effect, 10 is complete control) (smallflower flatsedge; [10]) | S. Flatsedge plant response rating (smallflower flatsedge; [11]) | S. Flatsedge plant response rating (smallflower flatsedge; [12]) | Plant response rating, Ducksalad (0 to 10 scale, 0 is no effect, 10 is complete control) (duck salad; [9]) | Ducksalad plant response rating (0 to 10 scale, 0 is no effect, 10 is complete control) (duck salad; [10]) | Ducksalad plant response rating (duck salad; [11]) | Ducksalad plant response rating (duck salad; [12]) | Plant response rating, Barnyardgrass (0 to 10 scale, 0 is no effect, 10 is complete control) (bamyardgrass; [9]) | Barnyardgrass plant response rating (0 to 10 scale, 0 is no effect, 10 is complete control) (bamyardgrass; [10]) | Barnyardgrass plant response rating (bamyardgrass; [11]) | Barnyardgrass plant response rating (bamyardgrass; [12])
3: Blackgrass plant response rating (blackgrass; [8]) | Cocklebur plant response rating (cocklebur; [1]) | Cocklebur plant response rating (cocklebur; [5]) | Wild oats plant response rating (wild oat; [8])
10: Giant foxtail plant response rating (giant foxtail; [2]) | Giant foxtail plant response rating (giant foxtail; [8]) | Morningglory plant response rating (morningglory; [5]) | Redroot pigweed plant response rating (pigweed; [8])
9: Giant foxtail plant response rating (giant foxtail; [1]) | Giant foxtail plant response rating (giant foxtail; [5]) | Morningglory plant response rating (morningglory; [1])
4: Morningglory plant response rating (morningglory; [3])
2: Blackgrass plant response rating (blackgrass; [1]) | Blackgrass plant response rating (blackgrass; [5]) | Blackgrass plant response rating (blackgrass; [2]) | B. signalgrass plant response rating (surinam grass; [8]) | Plant response rating, Giant foxtail (giant foxtail; [6]) | Morningglory plant response rating (morningglory; [8]) | Plant response rating, Redroot pigweed (pigweed; [6]) | Plant response rating, Redroot pigweed (pigweed; [7]) | Rape plant response rating (rape; [8]) | Soybean plant response rating (soybean; [1]) | Soybean plant response rating (soybean; [8])
6: Soybean plant response rating (soybean; [5])
8: Morningglory plant response rating (morningglory; [4])
7: Plant response rating, Giant foxtail (giant foxtail; [7])
5: Giant foxtail plant response rating (giant foxtail; [3]) | Giant foxtail plant response rating (giant foxtail; [4]) | Redroot pigweed plant response rating (pigweed; [2])
